Source: article PMC12305494, “Discovery of PXR Antagonist MI891 and PXR Degrader MI1013 and Their Roles in Hepatic Gene Regulation” (Journal of Medicinal Chemistry, 2025)
Several values for one entry are separate records, joined by “and”; a condition that tells them apart may be missing. Equal values may be shown once.

Legend:
[1] = target: T1, human wild-type CAR (CARwt) (Homo sapiens, UniProt Q14994); assay: CARwt luciferase reporter gene assay in HepG2; assay type: cell-based
T1 construct: expressed in transfected cells; host or cells: HepG2
Protocol: (§1) Rhesus monkey, mouse, and rat PXR expression vectors (100 ng/well each) were also obtained from GenScript. […] Carlberg (University of Kuopio, Kuopio, Finland).
(§2) The cells were cultured in DMEM medium (Merck) supplemented with 10% fetal bovine serum.

[2] = target: T2, CAR3 variant (Homo sapiens, UniProt Q14994, DEL233-236); assay: CAR3 variant luciferase reporter assay; assay type: cell-based; conditions: at concentrations up to 10 μM
T2 construct: expressed in transfected cells
Protocol: as §1, §2

[3] = target: PPARα (Homo sapiens, UniProt Q07869); assay: PPARα luciferase reporter assay, agonistic and antagonistic setups; assay type: cell-based; conditions: prototype ligand fenofibrate
Protocol: (§3) For the farnesoid X receptor (FXR) luciferase gene reporter assay, the full-length expression vector was paired with pFXRE-luc luciferase construct. The p1A1-luc construct was used in the aryl hydrocarbon receptor (AhR) assays with pRL-TK for normalization. Gal4-LXR-α/β, and Gal4-PPAR-γ constructs were used with the pGAL4 UAS-luc construct. For the VDR assay, expression vector pSG5-hVDR together with pVDRE-luc constructs was used. Firefly and Renilla luciferase activities were analyzed using a Dual reporter assay (Promega). For the nuclear receptor assays, prototype ligands were used at the following concentrations: Calcitriol for VDR (100 nM), GW3965 for LXRα and LXRβ (10 μM), 6-OCA for FXR (1 μM), fenofibrate for PPARα (10 μM), estradiol for ERα and β (10 μM), rosiglitazone for PPARγ (10 μM), 3-MC for AhR (5 μM), and TCPOBOP for mCAR (10 μM). Detailed descriptions and protocols are detailed in our recent publication. ,

[4] = target: T3, PXR (Homo sapiens, UniProt O75469); assay: cell-based
T3 sequence (O75469 1-434): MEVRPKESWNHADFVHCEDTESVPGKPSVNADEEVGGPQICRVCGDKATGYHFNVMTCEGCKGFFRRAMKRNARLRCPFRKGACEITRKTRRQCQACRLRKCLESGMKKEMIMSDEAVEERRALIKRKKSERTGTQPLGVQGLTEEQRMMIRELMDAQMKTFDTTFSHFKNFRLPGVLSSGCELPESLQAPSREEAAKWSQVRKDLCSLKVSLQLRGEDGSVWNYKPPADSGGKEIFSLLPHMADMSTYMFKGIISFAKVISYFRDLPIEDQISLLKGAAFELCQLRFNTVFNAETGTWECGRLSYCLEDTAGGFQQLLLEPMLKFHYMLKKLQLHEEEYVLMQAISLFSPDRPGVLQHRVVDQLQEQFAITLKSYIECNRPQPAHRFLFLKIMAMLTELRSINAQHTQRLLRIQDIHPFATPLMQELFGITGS
Protocol: (§4) The PXR activity was assessed as the PXR-dependent transcriptional activation using the construct. […] The control vector pRL-TK (Promega) constitutively expresses Renilla luciferase. […] Transient transfection experiments followed published protocols used in our laboratory and described before. , Luciferase reporter assays were conducted to evaluate interactions with PXR or CAR and their variants in HepG2, or COS-1. Cells were seeded at a density of 40,000 cells/cm^2 in 48-well plates (ThermoFisher Scientific) and maintained at 37 °C in a humidified atmosphere with 5% CO2. […] Following seeding, HepG2 cells were transfected with 150 ng/well of a luciferase reporter construct and 100 ng/well of a nuclear receptor expression vector using Lipofectamine 3000 (ThermoFisher Scientific) and with pRL-TK (30 ng/well) serving as the normalization control. After 24 h, cells were treated with test compounds for 24 h before cell lysis and subsequent firefly and Renilla luciferase activity analysis using the Dual-Glo Luciferase Assay System (Promega). […] The activities of test compounds were normalized to the respective controls to determine % activation or inhibition.

[5] = test system: ERα/β; assay: ERα/β agonist reporter assay; assay type: cell-based; conditions: 10 µM MI891
Protocol: as §3, with “publication. , […]” for “publication. ,”
hydrophobic interactions. (F) Superimposed diagram of PXR bound with agonist (SJPYT-328) and antagonists (MI891 and SJPYT-331) to differentiate the agonist and antagonist interactions with helix 12 (H12). The interaction of the agonist with PXR residue (L428) is circled. (G) Extended nuclear receptor selectivity profile. […]

[6] = target: T4, farnesoid X receptor (FXR) (Homo sapiens, UniProt Q96RI1); assay: FXR luciferase reporter assay, agonistic and antagonistic setups; assay type: cell-based; conditions: prototype ligand 6-OCA
T4 construct: the full-length expression vector was paired with pFXRE-luc luciferase construct; expressed in transfected cells
Protocol: as §3

[7] = target: T5, PXR LBD (Homo sapiens, UniProt O75469); assay: LanthaScreen TR-FRET PXR competitive binding assay; conditions: recombinant PXR LBD, competition with tracer
T5 construct: purchased Thermo Fisher Scientific PV4839
Protocol: We utilized the LanthaScreen TR-FRET CAR Coactivator Binding Assay Kit, goat (Thermo Fisher Scientific, Cat. No. PV4836), which includes GST-tagged human CAR LBD and a fluorescein-labeled PGC1α coactivator peptide. The assay was performed with slight modifications to the manufacturer’s protocol, as previously reported. […] The interaction with the PXR ligand-binding domain (LBD) was assessed using the LanthaScreen TR-FRET PXR Competitive Binding Assay (Thermo Fisher Scientific, PV4839), as previously described. This assay quantifies the ability of test compounds to displace a fluorescent PXR ligand from the receptor. Fluorescence readings were taken on a Synergy 2 Multi-Mode Microplate Reader (BioTek, Winooski, VT). The half-maximal inhibitory concentration (IC50) for PXR LBD was calculated from at least eight data points using GraphPad Prism software.

[8] = target: T3, PXR; conditions: HepG2, rifampicin 1 or 5 μM
Protocol: as §4

T1 sequence (Q14994 1-348 isoform Q14994-2): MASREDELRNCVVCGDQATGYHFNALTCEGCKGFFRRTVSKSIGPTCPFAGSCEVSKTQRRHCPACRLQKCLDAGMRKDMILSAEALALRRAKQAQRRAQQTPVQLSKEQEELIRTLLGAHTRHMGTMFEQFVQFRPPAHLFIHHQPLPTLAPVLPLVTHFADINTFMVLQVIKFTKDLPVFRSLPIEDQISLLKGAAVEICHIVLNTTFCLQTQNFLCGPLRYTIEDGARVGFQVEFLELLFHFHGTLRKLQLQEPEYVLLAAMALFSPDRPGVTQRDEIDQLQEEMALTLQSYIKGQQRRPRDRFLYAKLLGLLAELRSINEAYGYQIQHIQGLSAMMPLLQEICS
T2 sequence (Q14994 with tags, fused parts or gaps isoform Q14994-8 DEL233-236): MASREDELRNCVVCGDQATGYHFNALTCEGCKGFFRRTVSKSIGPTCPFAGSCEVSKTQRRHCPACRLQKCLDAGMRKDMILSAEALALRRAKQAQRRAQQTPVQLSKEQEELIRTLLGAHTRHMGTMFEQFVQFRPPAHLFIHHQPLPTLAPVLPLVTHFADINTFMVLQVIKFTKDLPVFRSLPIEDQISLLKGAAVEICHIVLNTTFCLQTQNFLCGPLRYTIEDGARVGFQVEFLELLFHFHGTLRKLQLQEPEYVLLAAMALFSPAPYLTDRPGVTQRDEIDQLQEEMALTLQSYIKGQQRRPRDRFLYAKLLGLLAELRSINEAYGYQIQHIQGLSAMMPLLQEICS
T2 sequence (P19793 whole entry partner): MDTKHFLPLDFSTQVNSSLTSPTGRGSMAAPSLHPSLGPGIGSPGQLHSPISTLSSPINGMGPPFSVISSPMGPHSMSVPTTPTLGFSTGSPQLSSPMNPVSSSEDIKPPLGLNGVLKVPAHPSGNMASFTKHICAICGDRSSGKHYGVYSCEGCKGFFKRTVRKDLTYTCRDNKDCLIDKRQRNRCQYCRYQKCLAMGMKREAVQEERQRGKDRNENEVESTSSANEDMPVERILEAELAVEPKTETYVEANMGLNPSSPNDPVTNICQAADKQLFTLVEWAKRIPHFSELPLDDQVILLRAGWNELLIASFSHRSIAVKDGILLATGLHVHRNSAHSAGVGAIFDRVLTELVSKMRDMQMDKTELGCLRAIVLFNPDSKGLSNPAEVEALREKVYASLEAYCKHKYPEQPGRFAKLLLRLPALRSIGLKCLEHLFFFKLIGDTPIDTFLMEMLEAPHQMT
T4 sequence (Q96RI1 whole entry): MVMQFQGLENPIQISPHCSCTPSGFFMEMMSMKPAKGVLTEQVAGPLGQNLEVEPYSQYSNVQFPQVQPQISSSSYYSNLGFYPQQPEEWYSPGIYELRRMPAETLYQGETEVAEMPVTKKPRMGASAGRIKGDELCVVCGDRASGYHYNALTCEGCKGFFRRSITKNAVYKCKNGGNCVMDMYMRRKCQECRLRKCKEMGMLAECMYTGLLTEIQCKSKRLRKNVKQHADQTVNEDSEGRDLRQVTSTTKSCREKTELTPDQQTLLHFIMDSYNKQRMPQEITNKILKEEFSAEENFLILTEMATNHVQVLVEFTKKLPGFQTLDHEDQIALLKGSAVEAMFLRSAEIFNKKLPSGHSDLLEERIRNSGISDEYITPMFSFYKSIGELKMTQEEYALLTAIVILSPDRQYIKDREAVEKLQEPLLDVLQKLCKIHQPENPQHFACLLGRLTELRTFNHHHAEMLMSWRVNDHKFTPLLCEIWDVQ
Chain of PPARα (Q07869 whole entry, the tested form may be a part): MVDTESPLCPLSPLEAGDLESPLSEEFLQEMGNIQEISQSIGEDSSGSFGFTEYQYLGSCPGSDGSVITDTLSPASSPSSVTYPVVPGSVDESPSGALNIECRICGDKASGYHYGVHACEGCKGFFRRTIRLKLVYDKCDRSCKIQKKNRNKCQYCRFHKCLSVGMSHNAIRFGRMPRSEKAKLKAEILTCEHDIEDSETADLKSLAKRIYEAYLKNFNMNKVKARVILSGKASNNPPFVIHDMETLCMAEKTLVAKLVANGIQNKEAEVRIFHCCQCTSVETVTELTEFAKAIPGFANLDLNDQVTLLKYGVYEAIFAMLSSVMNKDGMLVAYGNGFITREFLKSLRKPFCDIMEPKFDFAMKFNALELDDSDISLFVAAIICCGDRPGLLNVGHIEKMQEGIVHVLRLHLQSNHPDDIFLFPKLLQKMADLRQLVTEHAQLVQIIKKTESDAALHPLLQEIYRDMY

Row | Molecule | EC50 ([1]; HepG2, read-out: CARwt activation EC50) | activation of CARwt ([1]; at concentrations up to 10 μM) | activation of CAR3 variant [2] | agonistic or antagonistic activity on PPARα [3] | IC50 ([4]; IC50, antagonistic activity for rifampicin (1 μM)-activated PXR, rifampicin 1 μM, HepG2) | IC50 ([4]; IC50, antagonistic mode, MI891 + Rif-5 μM, rifampicin 5 μM, HepG2) | IC50 ([4]; PXR antagonism: PXR inhibition (IC50, μM), antagonist mode with 10 μM rifampicin, mean ± SD, n = 3) | agonistic effect on ERα/β [5] | agonistic or antagonistic activity on FXR [6] | binding to PXR LBD compared to MI1011B and SR12813 [7] | inhibition of PXR activation by rifampicin [8]
1 | NC(=O)c1cc(Cn2cc(-c3c(-c4ccc(Cl)cc4)nc4c(F)cc(F)cn34)nn2)ccc1Cl [Compound 11, 2-Chloro-5-((4-(2-(4-chlorophenyl)-6,8-difluoroimidazo[1,2-a]pyridin-3-yl)-1H-1,2,3-triazol-1-yl)methyl)-benzamide] | ~137 µM and 137 µM | no significant activation | no significant activation | no significant agonistic or antagonistic activities | 0.378 µM | 3.5 µM | 3.8 µM and 3.76 µM | no agonistic effects | no significant agonistic or antagonistic activities |  | 
2 | N-(4-((1-(2,5-dimethoxyphenyl)-5-methyl-1H-1,2,3-triazol-4-yl)sulfonyl)phenyl)-3-(2-(2-(2-(4-(((2-(2,6-dioxopiperidin-3-yl)-1,3-dioxoisoindolin-4-yl)amino)methyl)-1H-1,2,3-triazol-1-yl)ethoxy)ethoxy)ethoxy)propenamide [Compound 36] |  |  |  |  |  |  |  |  |  | weaker binding to PXR LBD | concentration-dependent inhibition of PXR activation by rifampicin
